Reference: PMC8776995 (Frontiers in Chemistry, 2022)
Values joined by “and” are separate entries in the source; they are usually repeats but may differ in a detail not shown here. Equal entries are not always repeated. Where two headings read alike, the source gives them in different places.

Legend:
[1] = tested on: H460 cells; experiment: CCK-8 antiproliferation assay, H460; settings: for Inhibitory efficacy: H460 cells; for IC50: NCI-H460, 48 h
[2] = tested on: H1975 cells; experiment: CCK-8 antiproliferation assay, H1975; settings: for Inhibitory efficacy: H1975 cells; for Inhibitory efficacy / inhibition at 2 µM / inhibition at 4 µM / inhibition at 8 µM / inhibition at 16 µM: given as fraction, Repeat 1-3; for IC50 / inhibition at 2 µM / inhibition at 4 µM / inhibition at 8 µM / inhibition at 16 µM: Homo sapiens; for IC50: NCI-H1975, 48 h; for inhibition at 2 µM / inhibition at 4 µM / inhibition at 8 µM / inhibition at 16 µM: NCI-H1975, read-out: Inhibitory efficacy, H1975 cells
[3] = tested on: A549 cells; experiment: CCK-8 antiproliferation assay, A549; settings: for Inhibitory efficacy: A549 cells
[4] = biological target: wild-type EGFR (Homo sapiens, UniProt P00533); experiment: EGFR kinase assay (ELISA); settings: for A450: raw ELISA absorbance
[5] = tested on: PC-9 cells; experiment: CCK-8 antiproliferation assay, PC-9; settings: for IC50: PC-9, 48 h, read-out: IC50 (μM) PC-9; for inhibition at 4 µM: PC-9, read-out: Inhibitory efficacy, PC-9, 4uM, single repeats (Repeat 1-3), given as fraction; for Inhibitory efficacy: single repeats (Repeat 1-3), given as fraction
Procedure: The compounds were dissolved in DMSO to make a 20 μM stock solution and diluted to the concentration of working solutions with complete growth medium before administration.
Cells were seeded in 96-well plates: 3,000–5,000 cells/well in 100 ul. One day after seeding, the test compounds at concentration between 1.0 and 16.0 μ M or 0.1% DMSO (as control) were added to cells in triplicate. 48 h later, CCK-8 was added and incubated the plate for 1–4 h in the incubator. The absorbance at 450 nm were measured using a microplate reader (Bio-Tek).

[6] = tested on: PC-9 xenograft; experiment: In vivo antitumor activity, PC-9 xenograft in NSG mice; parameters: species or system mouse
Procedure: The mouse body mass was recorded as well.

[7] = 2uM, given as fraction, Repeat 1-3
[8] = Homo sapiens, NCI-H460, read-out: Inhibitory efficacy, H460 cells, 2uM, given as fraction, Repeat 1-3
[9] = 1uM, given as fraction, Repeat 1-3
[10] = 4uM, given as fraction, Repeat 1-3
[11] = 8uM, given as fraction, Repeat 1-3
[12] = 16uM, given as fraction, Repeat 1-3

wild-type EGFR, sequence (P00533 25-1210): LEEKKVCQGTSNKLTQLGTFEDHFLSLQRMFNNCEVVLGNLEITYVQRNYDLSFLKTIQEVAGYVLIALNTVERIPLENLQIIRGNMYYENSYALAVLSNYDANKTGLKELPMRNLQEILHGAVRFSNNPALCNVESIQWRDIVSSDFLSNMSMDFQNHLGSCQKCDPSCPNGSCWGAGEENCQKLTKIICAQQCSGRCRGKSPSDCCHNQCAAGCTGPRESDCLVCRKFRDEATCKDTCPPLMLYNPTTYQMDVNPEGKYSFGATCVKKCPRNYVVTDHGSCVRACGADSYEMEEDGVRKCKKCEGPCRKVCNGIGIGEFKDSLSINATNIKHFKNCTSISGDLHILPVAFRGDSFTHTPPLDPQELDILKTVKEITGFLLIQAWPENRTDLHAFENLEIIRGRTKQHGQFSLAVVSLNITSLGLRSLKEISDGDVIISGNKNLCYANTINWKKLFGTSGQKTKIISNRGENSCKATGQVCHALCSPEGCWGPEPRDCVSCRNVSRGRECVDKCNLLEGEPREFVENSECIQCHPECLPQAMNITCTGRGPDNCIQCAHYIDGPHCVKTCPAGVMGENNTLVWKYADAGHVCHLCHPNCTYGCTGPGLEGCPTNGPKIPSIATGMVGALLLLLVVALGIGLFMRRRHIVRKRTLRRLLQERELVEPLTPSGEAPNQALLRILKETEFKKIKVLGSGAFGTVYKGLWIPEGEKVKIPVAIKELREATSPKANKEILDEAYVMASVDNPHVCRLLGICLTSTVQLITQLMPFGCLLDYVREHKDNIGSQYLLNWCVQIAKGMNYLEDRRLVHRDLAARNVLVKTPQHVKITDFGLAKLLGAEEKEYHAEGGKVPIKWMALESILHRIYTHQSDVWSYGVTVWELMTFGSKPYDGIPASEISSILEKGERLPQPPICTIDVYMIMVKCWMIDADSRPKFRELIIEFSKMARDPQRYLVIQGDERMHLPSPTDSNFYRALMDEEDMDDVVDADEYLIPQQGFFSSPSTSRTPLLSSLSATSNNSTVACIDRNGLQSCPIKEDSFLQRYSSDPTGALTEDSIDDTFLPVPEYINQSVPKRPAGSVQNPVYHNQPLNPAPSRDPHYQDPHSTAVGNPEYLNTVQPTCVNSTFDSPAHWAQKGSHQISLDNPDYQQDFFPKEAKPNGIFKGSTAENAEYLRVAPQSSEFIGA

## COCCOc1cc2ncnc(Nc3cccc(-c4cn(Cc5ccccc5)nn4)c3)c2cc1OCCOC [e1, [3-(1-Benzyl-1H-[1,2,3]triazol-4-yl)-phenyl]-[6,7-bis-(2-methoxy-ethoxy)-quinazolin-4-yl]-amine]
[1]; [7]
  Inhibitory efficacy: 0.09593 and 0.09213
[1]; Homo sapiens, read-out: IC50 (μM) H460, CCK-8, 48 h, average ± SD of three independent experiments
  IC50: > 100 µM
[1]; [8]
  inhibition at 2 µM: 11.9%
[2]; 2uM
  Inhibitory efficacy: 0.214 and 0.1313
  inhibition at 2 µM: 24.3%
[2]; 4uM
  Inhibitory efficacy: 0.2001 and 0.2011
  inhibition at 4 µM: 28.4%
[2]; 8uM
  Inhibitory efficacy: 0.2439 and 0.3137
  inhibition at 8 µM: 25.2%
[2]; 16uM
  Inhibitory efficacy: 0.3018 and 0.3516
  inhibition at 16 µM: 37.9%
[2]; read-out: IC50 (μM) H1975, CCK-8, 48 h, average ± SD of three independent experiments
  IC50: > 100 µM
[3]; Homo sapiens, A549, 48 h, read-out: IC50 (μM) A549, CCK-8, 48 h, average ± SD of three independent experiments
  IC50: > 100 µM
other
  melting point: 89 to 92 °C
[4]; IC50 (μM) EGFR, ELISA, 3 μmol/L ATP
  IC50: 1.34 µM
[4]; concentration 0.03 nM, one value per replicate column, 3e-05 µM
  Inhibition: 3.106 and 6.667
[4]; concentration 0.3 nM, one value per replicate column
  inhibition at 0.0003 µM: 14.9%
[4]; concentration 0.3 nM, one value per replicate column, 0.0003 µM
  Inhibition: 12.7273
[4]; concentration 3 nM, one value per replicate column
  inhibition at 0.003 µM: 15.5%
[4]; concentration 3 nM, one value per replicate column, 0.003 µM
  Inhibition: 27.2727
[4]; concentration 30 nM, one value per replicate column
  inhibition at 0.03 µM: 28%
[4]; concentration 30 nM, one value per replicate column, 0.03 µM
  Inhibition: 34.5455
[4]; concentration 300 nM, one value per replicate column
  inhibition at 0.3 µM: 34.2%
[4]; concentration 300 nM, one value per replicate column, 0.3 µM
  Inhibition: 43.6364
[4]; concentration 3000 nM, one value per replicate column
  inhibition at 3 µM: 43.5%
[4]; concentration 3000 nM, one value per replicate column, 3 µM
  Inhibition: 45.4545
[4]; concentration 30000 nM, one value per replicate column
  inhibition at 30 µM: 73.9%
[4]; concentration 30000 nM, one value per replicate column, 30 µM
  Inhibition: 80.6061
[4]; concentration 0.0001 nM
  A450: 0.408 and 0.407
[4]; concentration 0.03 nM
  A450: 0.403 and 0.396
[4]; concentration 0.3 nM
  A450: 0.384 and 0.386
[4]; concentration 3 nM
  A450: 0.383 and 0.362
[4]; concentration 30 nM
  A450: 0.363 and 0.35
[4]; concentration 300 nM
  A450: 0.353 and 0.335
[4]; concentration 3000 nM
  A450: 0.338 and 0.332
[4]; concentration 30000 nM
  A450: 0.289 and 0.274
[5]; Homo sapiens
  IC50: > 100 µM
  inhibition at 4 µM: 13.4%
[5]; PC-9, 4uM, 4 µM
  Inhibitory efficacy: 0.07898 and 0.104

## C#Cc1cccc(Nc2ncnc3cc(OCCOC)c(OCCOC)cc23)c1 [Erlotinib, reference compound]
[1]; [9]
  Inhibitory efficacy: 0.09689 and 0.1206
[1]; [7]
  Inhibitory efficacy: 0.2063 and 0.1995
[1]; [10]
  Inhibitory efficacy: 0.3477 and 0.3746
[1]; [11]
  Inhibitory efficacy: 0.4407 and 0.5067
[1]; [12]
  Inhibitory efficacy: 0.4651 and 0.4816
[1]; Homo sapiens, read-out: IC50 (μM) H460
  IC50: 13.3 ± 1.5 µM
[1]; Homo sapiens, NCI-H460, read-out: Inhibitory efficacy, H460 cells, 1uM, given as fraction, Repeat 1-3
  inhibition at 1 µM: 6.64%
[1]; [8]
  inhibition at 2 µM: 14.3%
[1]; Homo sapiens, NCI-H460, read-out: Inhibitory efficacy, H460 cells, 4uM, given as fraction, Repeat 1-3
  inhibition at 4 µM: 30%
[1]; Homo sapiens, NCI-H460, read-out: Inhibitory efficacy, H460 cells, 8uM, given as fraction, Repeat 1-3
  inhibition at 8 µM: 47.8%
[1]; Homo sapiens, NCI-H460, read-out: Inhibitory efficacy, H460 cells, 16uM, given as fraction, Repeat 1-3
  inhibition at 16 µM: 47.2%
[2]; 2uM
  Inhibitory efficacy: 0.1989 and 0.1819
  inhibition at 2 µM: 20.1%
[2]; 4uM
  Inhibitory efficacy: 0.3103 and 0.3631
  inhibition at 4 µM: 30.1%
[2]; 8uM
  Inhibitory efficacy: 0.4556 and 0.4424
  inhibition at 8 µM: 42.2%
[2]; 16uM
  Inhibitory efficacy: 0.4821 and 0.5651
  inhibition at 16 µM: 55.9%
[2]; read-out: IC50 (μM) H1975
  IC50: 12.7 ± 2.76 µM
[3]; [9]
  Inhibitory efficacy: 0.1312 and 0.1478
[3]; [7]
  Inhibitory efficacy: 0.2342 and 0.2336
[3]; [10]
  Inhibitory efficacy: 0.4482 and 0.3384
[3]; [11]
  Inhibitory efficacy: 0.471 and 0.4975
[3]; [12]
  Inhibitory efficacy: 0.5265 and 0.5389
[3]; Homo sapiens, A549, read-out: Inhibitory efficacy, A549 cells, 1uM, given as fraction, Repeat 1-3
  inhibition at 1 µM: 22.3%
[3]; Homo sapiens, A549, read-out: Inhibitory efficacy, A549 cells, 2uM, given as fraction, Repeat 1-3
  inhibition at 2 µM: 25.5%
[3]; Homo sapiens, A549, read-out: Inhibitory efficacy, A549 cells, 4uM, given as fraction, Repeat 1-3
  inhibition at 4 µM: 39%
[3]; Homo sapiens, A549, read-out: Inhibitory efficacy, A549 cells, 8uM, given as fraction, Repeat 1-3
  inhibition at 8 µM: 47.8%
[3]; Homo sapiens, A549, read-out: Inhibitory efficacy, A549 cells, 16uM, given as fraction, Repeat 1-3
  inhibition at 16 µM: 56%
[6]; Day13, group mean
  tumor volume mean: 75.6221 mm3
[6]; Day13, individual animals
  tumor length: 5.32 mm and 6.15 mm and 5.63 mm and 5.6 mm and 6.4 mm and 5.64 mm and 7.11 mm
  tumor volume: 68.645 mm3 and 111.069 mm3 and 86.3969 mm3 and 32.368 mm3 and 70.688 mm3 and 54.5952 mm3 and 105.592 mm3
  tumor width: 5.08 mm and 6.01 mm and 5.54 mm and 3.4 mm and 4.7 mm and 4.4 mm and 5.45 mm
[6]; Day15, group mean
  tumor volume mean: 46.9389 mm3
[6]; Day15, individual animals
  tumor length: 5.43 mm and 5.76 mm and 4.04 mm and 4.28 mm and 5.96 mm and 6.09 mm and 6.46 mm
  tumor volume: 23.7877 mm3 and 44.4813 mm3 and 30.5668 mm3 and 38.11 mm3 and 66.1086 mm3 and 70.1568 mm3 and 55.3609 mm3
  tumor width: 2.96 mm and 3.93 mm and 3.89 mm and 4.22 mm and 4.71 mm and 4.8 mm and 4.14 mm
[6]; Day17, group mean
  tumor volume mean: 35.7998 mm3
[6]; Day17, individual animals
  tumor length: 4.34 mm and 4.5 mm and 4.68 mm and 3.6 mm and 3.5 mm and 5.64 mm and 5.39 mm
  tumor volume: 40.4974 mm3 and 44.957 mm3 and 28.665 mm3 and 15.138 mm3 and 14.7175 mm3 and 67.7082 mm3 and 38.9158 mm3
  tumor width: 4.32 mm and 4.47 mm and 3.5 mm and 2.9 mm and 4.9 mm and 3.8 mm
[6]; Day19, group mean
  tumor volume mean: 14.0038 mm3
[6]; Day19, individual animals
  tumor length: 2.66 mm and 3.12 mm and 2.47 mm and 0 mm and 3.83 mm and 4.36 mm and 4.91 mm
  tumor volume: 8.246 mm3 and 6.24 mm3 and 5.446 mm3 and 0 mm3 and 21.1079 mm3 and 22.4629 mm3 and 34.5234 mm3
  tumor width: 2.49 mm and 2 mm and 2.1 mm and 0 mm and 3.32 mm and 3.21 mm and 3.75 mm
[5]; Homo sapiens
  IC50: 0.21 ± 0.07 µM
  inhibition at 4 µM: 73.2%
[5]; Homo sapiens, PC-9, read-out: Inhibitory efficacy, PC-9, 1uM, single repeats (Repeat 1-3), given as fraction
  inhibition at 1 µM: 60.2%
[5]; Homo sapiens, PC-9, read-out: Inhibitory efficacy, PC-9, 2uM, single repeats (Repeat 1-3), given as fraction
  inhibition at 2 µM: 62.2%
[5]; Homo sapiens, PC-9, read-out: Inhibitory efficacy, PC-9, 8uM, single repeats (Repeat 1-3), given as fraction
  inhibition at 8 µM: 72.2%
[5]; Homo sapiens, PC-9, read-out: Inhibitory efficacy, PC-9, 16uM, single repeats (Repeat 1-3), given as fraction
  inhibition at 16 µM: 77.6%
[5]; PC-9, 1uM, 1 µM
  Inhibitory efficacy: 0.6098 and 0.6255
[5]; PC-9, 2uM, 2 µM
  Inhibitory efficacy: 0.6294 and 0.6255
[5]; PC-9, 4uM, 4 µM
  Inhibitory efficacy: 0.6922 and 0.7284
[5]; PC-9, 8uM, 8 µM
  Inhibitory efficacy: 0.7167 and 0.7137
[5]; PC-9, 16uM, 16 µM
  Inhibitory efficacy: 0.7578 and 0.7647

## COCCOc1cc2ncnc(Nc3cccc(-c4cn(Cc5cccc(OC)c5)nn4)c3)c2cc1OCCOC [e5]
other
  melting point: 85 to 88 °C
